Read-outs that look alike come from different tables or passages of the source.
How the values were obtained:
[1] = biological target: T1, hGPR17 (Homo sapiens, UniProt Q13304); assay: [35S]GTPγS binding to membranes of 1321N1 cells expressing human GPR17; format: biochemical; parameters: expressed in transfected cells; host or cells: 1321N1 (A1, A5), COS-7 (A3, A6), HEK-293 (A4); pcDNA3.1; conditions: for effect on [35S]GTPγS binding (agonist response): tested at 10 and 50 μM, 1321N1 cells expressing hGPR17; for EC50: agonist, 1321N1 cells expressing human GPR17
Experimental: (§1) [^35S]GTPγS Binding Assay. 1321N1 cells, COS-7 and HEK-293 cells (control and transfected cells) were homogenized in 5 mM TRIS-HCl, 2 mM EDTA, pH 7.4 and centrifuged at 48000 g for 15 min at 4° C. The resulting pellets (plasma membranes) were washed in 50 mM TRIS-HCl, 10 mM MgCl2, pH 7.4 and stored at −80° C. until used. Measurement of nucleotide-stimulated [^35S]GTPγS binding to membranes of cells expressing the human or rat GPR17 receptor was performed as previously described^9-11.
(§2) To identify the endogenous ligand of GPR17, the cDNAs from human and rat GPR17 were cloned into the mammalian expression vector pcDNA3.1 and transfected in 1321N1, COS-7 and HEK-293 cells for functional characterization. GPR17 activation was assessed by testing the ability of exogenously-added ligands to increase [^35S]GTPγS binding to purified membranes obtained from transfected cells^9-11. […] The specificity of GPR17 responses were also challenged by assessing the ability of some purinergic and leukotriene receptor antagonists to counteract the increase of [^35S]GTPγS binding evoked by nucleotides and cys-LTs in 1321N1 cells expressing either the human or rat receptor. […] Because both P2Y^2,11,12 and CysLT receptors^3,13 may couple to G proteins of the Gi subfamily, to evaluate the involvement of this class of G-proteins, we preincubated 1321N1 cells expressing hGPR17 with pertussis toxin (PTX) which inactivates Gi proteins, prior to membrane preparation and [^35S]GTPγS binding.
(§3) Table 1. Potency of various ligands on [^35S]GTPγS binding to membranes obtaind from 1321N1 cells-transfected with human or rat GPR17. […] All data represent the mean of triplicate determinations from 4-9 independent experiments.

[2] = biological target: T2, rat GPR17 (Rattus norvegicus, UniProt Q09QM4); assay: [35S]GTPγS binding to membranes of 1321N1 cells expressing rat GPR17; format: biochemical; conditions: for IC50: rat GPR17; for EC50: agonist, 1321N1 cells expressing rat GPR17
T2 construct: expressed in transfected cells; host or cells: 1321N1; pcDNA3.1
Experimental: as §1, §2, §3

[3] = biological target: T1, hGPR17; assay: Single cell calcium imaging in COS-7 cells expressing hGPR17; format: cell-based; parameters: expressed in transfected cells; host or cells: COS-7 (A3, A6); pcDNA3.1
Description: (e-h) The same agonists induced no responses in cells transfected with the empty plasmid. […] Polychrome IV (TILL Photonics, Germany) was used as light source. Fura-2 and EGFP fluorescence images were collected with a PCO Super […] (Axon Instruments, Forest City, Calif.) and analyzed with the Axon Imaging Workbench 2.2 software (Axon Instruments).

[4] = biological target: T1, hGPR17; assay: Single cell calcium imaging in 1321N1 cells expressing hGPR17; format: cell-based; parameters: expressed in transfected cells; host or cells: 1321N1 (A1, A5), COS-7 (A3, A6), HEK-293 (A4); pcDNA3.1
Description: Polychrome IV (TILL Photonics, Germany) was used as light source. Fura-2 and EGFP fluorescence images were collected with a PCO Super […] (Axon Instruments, Forest City, Calif.) and analyzed with the Axon Imaging Workbench 2.2 software (Axon Instruments).

[5] = biological target: T1, hGPR17; assay: [35S]GTPγS binding, COS-7 cells expressing hGPR17; format: biochemical; parameters: expressed in transfected cells; host or cells: COS-7 (A3, A6); pcDNA3.1; conditions: COS-7 cells transfected with hGPR17
Experimental: as §1
To identify the endogenous ligand of GPR17, the cDNAs from human and rat GPR17 were cloned into the mammalian expression vector pcDNA3.1 and transfected in 1321N1, COS-7 and HEK-293 cells for functional characterization. GPR17 activation was assessed by testing the ability of exogenously-added ligands to increase [^35S]GTPγS binding to purified membranes obtained from transfected cells^9-11. […] The specificity of GPR17 responses were also challenged by assessing the ability of some purinergic and leukotriene receptor antagonists to counteract the increase of [^35S]GTPγS binding evoked by nucleotides and cys-LTs in 1321N1 cells expressing either the human or rat receptor. […]

[6] = test system: ischemic brain damage (MCAo); assay: Permanent middle cerebral artery occlusion (MCAo), brain infarct size by MRI; format: in vivo, rat; conditions: 400 ng/animal i.c.v. 48 and 24 h before and 10 min after MCAo
Experimental: Quantitative analysis of infarct size volume at 24 and 48 h after MCAo from rats receiving vehicle (C1, n=5) or Mtk (2 mg/kg intravenously, i.v., 10 min after MCAO; n=6); vehicle (C2, n=5) or AR-C (4.5 μg/animal intracerebroventricularly, i.c.v., 10 min after MCAo, n=5), vehicle (C3, n=5) or either oligo616 or scrambled-oligo (400 ng/animal, i.c.v., 48, 24 before and 10 min after MCAo, n=5). Data are expressed as percentage variation of infarct volume at 24 and 48 hours after MCAo compared to 2 h considered as 100% (§ p<0.05, # p<0.01 vs volume at 2 hr; *p <0.05, **p<0.01 vs corresponding control evaluated at the same time point). Induction of focal brain ischemia in the rat. Male Sprague-Dawley rats (Charles River) underwent permanent middle cerebral artery occlusion (MCAo) as previously described^28,29. […] AR-C was utilized here to simply test the involvement of GPR17 in brain ischemia, and, being a very polar molecule which is likely to very poorly permeate the blood brain barrier, it was administered i.c.v. Oligo-616 and oligo-scramble (400 ng in 5 μl of physiological solution) were administered i.c.v three times to each rat 48, 24 h before and 10 minutes after MCAo. Control groups received corresponding vehicle i.c.v. Magnetic Resonance Imaging analysis. […]

[7] = test system: rGPR17 mRNA; assay: Antisense down-regulation of rGPR17 mRNA in HEK-293 cells (RT-PCR); format: cell-based, rat; conditions: 0.3 μM, added 16 and 40 h after transfection
Experimental: FIG. 4.1 Target sequences of synthesized anti-sense oligonucleotides on rGPR17 mRNA. (a) The various anti-sense sequences were named based on the rat coding sequence (GenBank accession No.: AC112062); black arrows indicate beginning and ending of the coding sequences. All oligonucleotides, including the “scrambled” sequence, were designed as described in Methods. All these sequences were tested in vitro on HEK-293 cells expressing rGPR17 in order to select the most appropriate oligonucleotides to be utilized for the in vivo studies. Two typical experiments are shown in (b), one aimed at assaying oligo616, oligo241 and oligo99, and the other one aimed at assaying oligoSTART and oligoEND, all in comparison with scrambled oligo sequences run in parallel. On day 2 after plating, cells were transfected with pcDNA3.1 containing the construct encoding for rGPR17 together with the neomycin resistance gene, here utilized as a reported gene. […] Twenty-four h after the last Fugene addition, RNA was extracted from cells as described in Methods, and the transcripts for both rGPR17 and the neomycin resistance gene determined as specific RT-PCR amplification products of 1079 and 357 bp, respectively, as indicated. […]

T1 sequence (Q13304 29-367): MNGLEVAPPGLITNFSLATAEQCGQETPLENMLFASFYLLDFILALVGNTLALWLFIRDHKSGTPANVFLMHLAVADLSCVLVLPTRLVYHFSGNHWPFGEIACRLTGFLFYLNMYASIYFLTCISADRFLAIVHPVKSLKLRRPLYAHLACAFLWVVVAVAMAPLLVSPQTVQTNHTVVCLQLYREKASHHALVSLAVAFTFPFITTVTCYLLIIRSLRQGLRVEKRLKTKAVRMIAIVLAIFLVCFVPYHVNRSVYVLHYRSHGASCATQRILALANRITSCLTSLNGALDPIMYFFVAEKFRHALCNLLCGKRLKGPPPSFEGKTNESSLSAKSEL
T2 sequence (Q09QM4 whole entry): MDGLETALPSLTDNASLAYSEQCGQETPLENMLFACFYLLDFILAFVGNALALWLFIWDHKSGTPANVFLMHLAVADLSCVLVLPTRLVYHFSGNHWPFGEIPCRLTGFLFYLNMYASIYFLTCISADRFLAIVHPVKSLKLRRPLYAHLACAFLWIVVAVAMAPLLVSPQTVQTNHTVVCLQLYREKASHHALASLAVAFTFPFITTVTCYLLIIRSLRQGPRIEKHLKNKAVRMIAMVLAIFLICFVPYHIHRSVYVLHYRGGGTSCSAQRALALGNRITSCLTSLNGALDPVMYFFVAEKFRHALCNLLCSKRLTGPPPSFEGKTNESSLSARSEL

`Nc1ncnc2c1ncn2[C@@H]1O[C@H](COP(=O)(O)OP(=O)(O)OP(=O)(O)O)[C@@H](O)[C@H]1O` [ATP] was tested, and the “effect on [35S]GTPγS binding (agonist response)” value (from here on “effect on [35S]GTPγS binding”) [1] was “No other nucleotides or nucleosides (i.e., ATP, ADP, 2-methyl-thio-ADP, UTP, α,βmethylenATP and guanosine, all tested at 10 and 50 μM concentrations) had any effect”.
Compound `O=C(Nc1cccc2c(=O)cc(-c3nnn[nH]3)oc12)c1ccc(OCCCCc2ccccc2)cc1` [Pranlukast] has an IC50 ([1]; antagonist of activation induced by 100 nM LTD4, human GPR17) of 10.5 ± 1.2 nM and an IC50 ([2]; antagonist of activation induced by 100 nM LTD4) of 31 ± 2.4 nM.
In the case of `CCCCC/C=C\C\C=C/C=C/C=C/[C@@H](SC[C@H](N)C(=O)NCC(=O)O)[C@@H](O)CCCC(=O)O` [LTD, LTD4], the EC50 [1] is reported as 7.2 ± 0.3 nM, the EC50 [2] is reported as 5.9 ± 0.4 nM and the “cells showing [Ca2+]i transient” value [3] is reported as “approximately 50%”. The “mean calcium response ΔF340/380” value ([3]; n=22) was 0.18±0.03, the “cells showing rise of [Ca2+]i” value [4] was “approximately 30%” and the “response in [35S]GTPγS binding” value [5] was “induced responses”.
With “oligo241: antisense oligonucleotide designed on the sequence of rGPR17 mRNA, SEQ ID NO: 2, unmodified (antisense GGGATCACAAGTCAGGCAC; unmodified DNA; listed as Rattus norvegicus)” the “evolution of brain infarct size (MRI)” value [6] was “smaller protective effect”.
With `CSCCNc1nc(SCCC(F)(F)F)nc2c1ncn2C1OC(COP(=O)(O)OP(=O)(O)C(Cl)(Cl)P(=O)(O)O)C(O)C1O` (stereo not drawn) [AR-C69931MX, N6-methylthio-ethyl-2-trifluoromethyl-ethylthio-adenosin-5′beta-methylene, γ-dichloromethylene trisphosphate] the IC50 ([2]; antagonist of binding stimulated by 50 μM UDP-glucose) was 0.022 ± 0.0015 nM.
“N6-methyl-adenosin-3′,5′-bis-phosphate [MRS 2179]” gave an IC50 ([1]; antagonist of binding stimulated by 50 μM UDP-glucose, human GPR17) of 508 ± 29 nM.
With “oligo616: antisense oligonucleotide designed on the sequence of rGPR17 mRNA, SEQ ID NO: 1, unmodified (antisense AACTGTACCGGGAGAAGGCC; unmodified DNA; listed as Rattus norvegicus)” the “attenuation of rGPR17 mRNA / in vitro expression of rGPR17” value [7] was “able to attenuate rGPR17 mRNA” and the “evolution of brain infarct size (MRI)” value [6] was “markedly and significantly attenuated infarct size evolution”.
For `CC(C)(O)c1ccccc1CC[C@@H](SCC1(CC(=O)O)CC1)c1cccc(/C=C/c2ccc3ccc(Cl)cc3n2)c1` [Montelukast], the IC50 [1] was 60 ± 4.3 nM.
With PTX the “inhibition of agonist-stimulated [35S]GTPγS binding” value ([1]; cells exposed to 100 ng/ml PTX for 18 h before membrane preparation, stimulated by UDP, UDP-galactose, UDP-glucose or LTD4) was “strongly inhibited”.
`O=c1ccn([C@@H]2O[C@H](COP(=O)(O)OP(=O)(O)OP(=O)(O)O)[C@@H](O)[C@H]2O)c(=O)[nH]1` [UTP] was tested, and the “effect on [35S]GTPγS binding” value [1] was “No other nucleotides or nucleosides (i.e., ATP, ADP, 2-methyl-thio-ADP, UTP, α,βmethylenATP and guanosine, all tested at 10 and 50 μM concentrations) had any effect”.
`Nc1nc2c(ncn2[C@@H]2O[C@H](CO)[C@@H](O)[C@H]2O)c(=O)[nH]1` [guanosine] was tested, and the “effect on [35S]GTPγS binding” value [1] was “No other nucleotides or nucleosides (i.e., ATP, ADP, 2-methyl-thio-ADP, UTP, α,βmethylenATP and guanosine, all tested at 10 and 50 μM concentrations) had any effect”.
With `CSc1nc(N)c2ncn([C@@H]3O[C@H](COP(=O)(O)OP(=O)(O)O)[C@@H](O)[C@H]3O)c2n1` [2-methyl-thio-ADP] the “effect on [35S]GTPγS binding” value [1] was “No other nucleotides or nucleosides (i.e., ATP, ADP, 2-methyl-thio-ADP, UTP, α,βmethylenATP and guanosine, all tested at 10 and 50 μM concentrations) had any effect”.
With `CCCCC/C=C\C\C=C/C=C/C=C/[C@@H](SC[C@H](NC(=O)CC[C@H](N)C(=O)O)C(=O)NCC(=O)O)[C@@H](O)CCCC(=O)O` [LTC, LTC4] the EC50 [1] was 0.33 ± 0.011 nM, the EC50 [2] was 65 ± 4.2 nM and the “response in [35S]GTPγS binding” value [5] was “induced responses”.
`Nc1ncnc2c1ncn2[C@@H]1O[C@H](COP(=O)(O)CP(=O)(O)OP(=O)(O)O)[C@@H](O)[C@H]1O` [α,βmethylenATP] was tested, and the “effect on [35S]GTPγS binding” value [1] was “No other nucleotides or nucleosides (i.e., ATP, ADP, 2-methyl-thio-ADP, UTP, α,βmethylenATP and guanosine, all tested at 10 and 50 μM concentrations) had any effect”.
With `Nc1ncnc2c1ncn2[C@@H]1O[C@H](COP(=O)(O)OP(=O)(O)O)[C@@H](O)[C@H]1O` [ADP] the “effect on [35S]GTPγS binding” value [1] was “No other nucleotides or nucleosides (i.e., ATP, ADP, 2-methyl-thio-ADP, UTP, α,βmethylenATP and guanosine, all tested at 10 and 50 μM concentrations) had any effect”.

Source: patent US8158593B2, “GPR17 modulators, method of screening and uses thereof” (Universita' degli Studi di Milano, priority 2004, dated 2012)
